# Laboratory results as given in PubChem BioAssay (NCI).
# Several values for one entry are separate records, joined by “and”; a condition that tells them apart may be missing. Identical values can stand only once.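 Cultured in 96-well plates, cells were exposed to test compound for 48 hours across five concentrations. At the GI50, growth is halved. The concentration for full growth arrest is given as TGI.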 Where a SMILES comes first, the peptide text is derived from it. [ ]: non-standard residue; d: D form. The star is where a group is joined. Bn2Val = CC(C)[C@@H](C(=O)*)N(Cc1ccccc1)Cc1ccccc1; NMeV = CN[C@H](C(=O)O)C(C)C; X29 = COc1ccc(CN*)c(OC)c1; dNMeA = CN[C@H](C)C(=O)O
# What was measured:
# Experiment in all cases: growth of human tumour cells (NCI), 48 h
# DLD-1 colon = test system: DLD-1 colon
# HL-60(TB) leukemia = test system: HL-60(TB) leukemia
# SNB-75 CNS = test system: SNB-75 CNS
# ACHN renal = test system: ACHN renal
# COLO 205 colon = test system: COLO 205 colon
# SNB-78 CNS = test system: SNB-78 CNS
# M19-MEL melanoma = test system: M19-MEL melanoma
# NCI-H23 lung = test system: NCI-H23 lung
# LOX IMVI melanoma = test system: LOX IMVI melanoma
# SF-268 CNS = test system: SF-268 CNS
# NCI/ADR-RES ovarian = test system: NCI/ADR-RES ovarian
# BT-549 breast = test system: BT-549 breast
SMILES,TGI (DLD-1 colon),TGI (HL-60(TB) leukemia),TGI (SNB-75 CNS),TGI (ACHN renal),TGI (COLO 205 colon),TGI (SNB-78 CNS),TGI (M19-MEL melanoma),TGI (NCI-H23 lung),TGI (LOX IMVI melanoma),TGI (SF-268 CNS),TGI (NCI/ADR-RES ovarian),GI50 (SNB-75 CNS),TGI (BT-549 breast)
COc1ccc2nc3c(c(NCCCN(C)C)c2c1)CCCC3,28.4 µM,29.6 µM,26.9 µM,55.3 µM,23 µM,21.4 µM,31 µM,31.4 µM,25.8 µM,,,,
O=C1Nc2cc([N+](=O)[O-])c(Br)cc2C1=O,46.5 µM,,52 µM,35.3 µM,35 µM,50.1 µM,31.6 µM,31.9 µM,35.2 µM,44.1 µM,,,
CCOC(=O)c1cc2c(OCc3ccccc3)c(OC)cc3c2c(n1)N(c1ccc(OC)cc1)C(C)C3 (stereo unspecified),> 50 µM,> 50 µM,> 50 µM,> 50 µM,> 50 µM,,> 50 µM,> 50 µM,> 50 µM,> 50 µM,,,
O=NN(CCF)C(=O)NC1CC2CCC1C2 (stereo unspecified),> 100 µM,> 100 µM,> 100 µM,,> 100 µM,> 100 µM,> 100 µM,> 100 µM,> 100 µM,> 100 µM,> 100 µM,,
Cc1cn(C2CC(CCCO)C(CO)O2)c(=O)[nH]c1=O (stereo unspecified),> 100 µM,> 100 µM,> 100 µM,> 100 µM,> 100 µM,,> 100 µM,> 100 µM,> 100 µM,> 100 µM,,> 100 µM and 30.5 µM,
CCC(COC(=O)CC[C@@H](NC(=O)C(C)NC(=O)C(C)OC1C(O)C(CO)OC(OCc2ccccc2)C1NC(C)=O)C(N)=O)NC1c2ccccc2Nc2cccc([N+](=O)[O-])c21 (stereo partly specified),> 100 µM,> 100 µM,> 100 µM,> 100 µM,> 100 µM,> 100 µM,> 100 µM,> 100 µM,> 100 µM,> 100 µM,,,
CN(C)c1ccc(/C=C/C(=O)N[C@@H]2C(=O)N3[C@@H]2SC(C)(C)[C@@H]3C(=O)O)cc1,,> 100 µM,> 100 µM,> 100 µM,> 100 µM,,,> 100 µM,> 100 µM,> 100 µM,> 100 µM,,> 100 µM
Cc1cccc2nc3c(=O)[nH]c(=O)nc-3n(C)c12,,45.9 µM,> 100 µM,> 100 µM,> 100 µM,,,> 100 µM,> 100 µM,> 100 µM,> 100 µM,,> 100 µM
Nc1cccc(S(=O)(=O)Nc2nnc(S(N)(=O)=O)s2)c1,,> 100 µM,> 100 µM,> 100 µM,> 100 µM,,,> 100 µM,> 100 µM,> 100 µM,> 100 µM,,> 100 µM
O=C1CC(C(OCc2ccccc2)C(OCc2ccccc2)C(COCc2ccccc2)OCc2ccccc2)CC(=O)N1 (stereo unspecified),,> 100 µM,> 100 µM,> 100 µM,> 100 µM,,,> 100 µM,> 100 µM,> 100 µM,> 100 µM,29.7 µM and > 75 µM,> 100 µM
CCOC(=O)CCC1(C(=O)OCC)CCCC1=O (stereo unspecified),> 100 µM,> 100 µM,> 100 µM,> 100 µM,> 100 µM,> 100 µM,> 100 µM,> 100 µM,> 100 µM,> 100 µM,,,
COc1cc(C2C(Cl)C(=O)N2NC(=O)c2ccc(NC(C)=O)cc2)ccc1O (stereo unspecified),> 100 µM,> 100 µM,,> 100 µM,> 100 µM,> 100 µM,> 100 µM,> 100 µM,> 100 µM,> 100 µM,,,
O=C1CC(C(CC(=O)c2ccccc2)c2ccccc2)C(=O)c2ccccc2N1 (stereo unspecified),,> 100 µM,> 100 µM,> 100 µM,> 100 µM,,,> 100 µM,> 100 µM,> 100 µM,75.5 µM,,> 100 µM
CC1(C)C2CCC3(OCCO3)C1C(O)C2 (stereo unspecified),> 100 µM,> 100 µM,> 100 µM,> 100 µM,,> 100 µM,> 100 µM,> 100 µM,> 100 µM,> 100 µM,,,
COC(=O)CC(C(C(=O)OCc1ccccc1)C(C)O)N1C(=O)OC(c2ccccc2)C1c1ccccc1 (stereo unspecified),> 100 µM,> 100 µM,,> 100 µM,> 100 µM,,> 100 µM,> 100 µM,> 100 µM,> 100 µM,,,
CS(=O)(=O)c1nc(-c2cc3c(c(S(C)(=O)=O)n2)CCC3)cc2c1CCCC2,,> 100 µM,23.4 µM,> 100 µM,> 100 µM,,,> 100 µM,49.8 µM,24.4 µM,> 100 µM,,83.8 µM

SMILES,TGI (DLD-1 colon),TGI (HL-60(TB) leukemia),TGI (SNB-75 CNS),TGI (ACHN renal),TGI (COLO 205 colon),TGI (SNB-78 CNS),TGI (M19-MEL melanoma),TGI (NCI-H23 lung),TGI (LOX IMVI melanoma),TGI (SF-268 CNS),TGI (NCI/ADR-RES ovarian),GI50 (SNB-75 CNS),TGI (BT-549 breast)
CCOc1ccc(N=NC2C(=O)N(C(=O)CC(=O)Nc3ccccc3)N=C2C)cc1 (stereo unspecified),,> 100 µM,> 100 µM,> 100 µM,> 100 µM,,,> 100 µM,> 100 µM,> 100 µM,> 100 µM,,> 100 µM
Oc1ccccc1C1C=C(c2ccccc2)NC(N2CCCCC2)=C1c1nc2ccccc2[nH]1 (stereo unspecified),,43 µM,18.3 µM,47.7 µM,5.81 µM,,,30.3 µM,31.2 µM,27.5 µM,34 µM,,28.5 µM
CC(=O)NC(CCCCN)C(=O)NCc1ccccc1 (stereo unspecified),> 100 µM,,> 100 µM,> 100 µM,> 100 µM,,> 100 µM,> 100 µM,> 100 µM,> 100 µM,,,
O=CC(O)C(O)C(O)C1CNC(=S)O1 (stereo unspecified),,> 100 µM,> 100 µM,> 100 µM,> 100 µM,,,> 100 µM,> 100 µM,> 100 µM,> 100 µM,,> 100 µM
COc1ccc(CNC(=O)[C@@H]2CCCN2C(=O)[C@@H](C)N(C)C(=O)[C@H](C(C)C)N(C)C(=O)[C@@H](NC(=O)[C@H](C(C)C)N(Cc2ccccc2)Cc2ccccc2)C(C)C)c(OC)c1 (Bn2Val-V[NMeV][dNMeA]P-X29),,2.8 µM,7.26 µM,13.9 µM,5.09 µM,,,9.3 µM,7.13 µM,> 100 µM,12.3 µM,,7.72 µM
COc1cccc(/C(Cl)=C(\C=O)c2cccc(OC)c2)c1,29.1 µM,12.5 µM,40.5 µM,25.8 µM,24.2 µM,30 µM,29 µM,22.7 µM,20.3 µM,21.2 µM,,,
CCOC(=O)C(C)Sc1nnc(COc2ccccc2OC)n1-c1ccccc1 (stereo unspecified),> 100 µM,> 100 µM,> 100 µM,> 100 µM,> 100 µM,> 100 µM,> 100 µM,> 100 µM,34.4 µM,> 100 µM,,,
Nc1nccc(NCC2(CO)CCC2)n1,,> 100 µM,> 100 µM,> 100 µM,> 100 µM,,,> 100 µM,> 100 µM,> 100 µM,> 100 µM,,> 100 µM
CN1CN(c2ccccc2)C2(CCN(CCCCCCF)CC2)C1=O,,> 100 µM,> 100 µM,> 100 µM,47.3 µM,,,> 100 µM,> 100 µM,> 100 µM,40.3 µM,,> 100 µM
O=c1c2ccccc2nc(-c2ccccc2)n1NC(=S)Nc1ccc(Cl)cc1,> 100 µM,> 100 µM,> 100 µM,> 100 µM,> 100 µM,,> 100 µM,> 100 µM,> 100 µM,> 100 µM,,,
Cc1cc(NC(=O)C2C3C=CC(O3)C2C(=O)O)no1 (stereo unspecified),49.2 µM,40 µM,> 100 µM,> 100 µM,31.5 µM,> 100 µM,77.7 µM,> 100 µM,29.8 µM,51.9 µM,,,
Cc1cccc2c1c1ccc3c(c1n2C)C(=O)C=CC3=O,5.21 µM,2.94 µM,42.8 µM,18 µM,6.26 µM,53.5 µM,14.9 µM,29.3 µM,6.58 µM,36.5 µM,,,
O=c1[nH]c(=O)n(COCCO)c2ccsc12,,> 100 µM,> 100 µM,> 100 µM,> 100 µM,,,> 100 µM,> 100 µM,> 100 µM,> 100 µM,,> 100 µM
O=C(O)CC[P+](c1ccccc1)(c1ccccc1)c1ccccc1,,80.8 µM,> 100 µM,> 100 µM,27.4 µM,,,> 100 µM,> 100 µM,> 100 µM,> 100 µM,,81.8 µM
CC(=O)OC1C2CCC3C(C)(O)C4CC(O)C(C)(C)C4(O)C(O)CC13CC2(C)O (stereo unspecified),,> 100 µM,> 100 µM,> 100 µM,> 100 µM,,,> 100 µM,> 100 µM,> 100 µM,> 100 µM,,> 100 µM
Cc1cc(C)nc(/C(=N\NC(N)=O)C(=O)Nc2nc3ccc(C)cc3s2)c1,> 100 µM,> 100 µM,> 100 µM,> 100 µM,> 73.5 µM,> 100 µM,> 100 µM,> 100 µM,> 70.5 µM,> 100 µM,,,
